Test results as given in patent publication US8389523B2, “Substituted quinoxaline and an agrochemical composition thereof” (Kumiai Chemical Industry Co., Ltd., priority 2007, dated 2013).

Columns and labels:
Type in all cases: in vivo
Set-up in all cases: scale not given here
[1] = system: Scirpus juncoides Roxb. var. ohwianus. T. Koyama; test: Herbicidal effects in paddy field soil treatment (Test Example 1); details: for Herbicidal effects index, Scirpus juncoides Roxb. var. ohwianus. T. Koyama: paddy field soil treatment, 1000 g of the active ingredient per hectare, wettable powder added dropwise on water surface, 21st day after treatment
Procedure, shortened: (§1)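 Application rate 1000 g a.i./ha, delivered as water-diluted wettable powder onto flooded (3 cm) paddy soil one day after sowing. Plants kept in a greenhouse and evaluated for herbicidal effect on day 21 post-treatment.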

[2] = system: Monochoria vaginalis (Burm. f.) Presl var. plantaginea (Roxb.) Solms-Laub.; test: as above; details: for Herbicidal effects index, Monochoria vaginalis (Burm. f.) Presl var. plantaginea (Roxb.) Solms-Laub.: paddy field soil treatment, 1000 g of the active ingredient per hectare, wettable powder added dropwise on water surface, 21st day after treatment
Procedure, shortened: as §1

[3] = system: Echinochloa oryzicola Vasing; test: as above; details: for Herbicidal effects index, Echinochloa oryzicola Vasing: paddy field soil treatment, 1000 g of the active ingredient per hectare, wettable powder added dropwise on water surface, 21st day after treatment
Procedure, shortened: as §1

[4] = system: Abutilon theophrasti medicus; test: Herbicidal effects in upland field soil treatment (Test Example 2); details: 1000 g active ingredient per hectare, 21st day after treatment, criteria of Table 138
Procedure, shortened: (§2)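 Herbicidal effect graded 21 days after treatment, plants kept in greenhouse. Treatment was a soil-surface spray of wettable powder in water, 1000 g a.i./ha in 1000 L/ha, applied after sowing and covering seeds.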

Amaranthus viridis L. [5] = test: as above; details: 1000 g active ingredient per hectare, 21st day after treatment, criteria of Table 138
Procedure, shortened: as §2

[6] = system: Abutilon theophrasti medicus; test: Herbicidal effects in upland field foliar treatment (Test Example 3); details: criteria of Table 138; for herbicidal effects on Abutilon theophrasti medicus: 1000 g of the active ingredient per hectare, 14th day after the treatment, wettable powder; for herbicidal effect (index) on Abutilon theophrasti medicus: 1000 g active ingredient per hectare, 14th day after treatment
Procedure, shortened: (§3)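 Foliar spray of diluted wettable powder, 1000 g a.i./ha in 1000 L/ha, onto two-week-old greenhouse-grown seedlings in upland field soil. Plants kept in the greenhouse, with effect rated on a criteria scale at day 14.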

[7] = system: Echinochloa crus-galli (L.) P. Beauv. var. crus-galli; test: as above; details: criteria of Table 138; for herbicidal effects on Echinochloa crus-galli (L.) P. Beauv. var. crus-galli: 1000 g of the active ingredient per hectare, 14th day after the treatment, wettable powder; for herbicidal effect (index) on Echinochloa crus-galli (L.) P. Beauv. var. crus-galli: 1000 g active ingredient per hectare, 14th day after treatment
Procedure, shortened: as §3

Amaranthus viridis L. [8] = test: as above; details: criteria of Table 138; for herbicidal effects on Amaranthus viridis L.: 1000 g of the active ingredient per hectare, 14th day after the treatment, wettable powder; for herbicidal effect (index) on Amaranthus viridis L.: 1000 g active ingredient per hectare, 14th day after treatment
Procedure, shortened: as §3

[9] = paddy field soil treatment (Test Example 1), criteria of Table 138

Row | SMILES | Herbicidal effects index, Scirpus juncoides Roxb. var. ohwianus. T. Koyama [1] | Herbicidal effects index, Monochoria vaginalis (Burm. f.) Presl var. plantaginea (Roxb.) Solms-Laub. [2] | Herbicidal effects index, Echinochloa oryzicola Vasing [3] | herbicidal effect (index) on Abutilon theophrasti medicus [4] | herbicidal effect (index) on Amaranthus viridis L. (Amaranthus viridis L. [5]) | herbicidal effects on Abutilon theophrasti medicus [6] | herbicidal effects on Echinochloa crus-galli (L.) P. Beauv. var. crus-galli [7] | herbicidal effects on Amaranthus viridis L. (Amaranthus viridis L. [8]) | herbicidal effect (index) on Abutilon theophrasti medicus [6] | herbicidal effect (index) on Echinochloa crus-galli (L.) P. Beauv. var. crus-galli [7] | herbicidal effect (index) on Amaranthus viridis L. (Amaranthus viridis L. [8]) | herbicidal effect (index) on Scirpus juncoides Roxb. var. ohwianus. T. Koyama [1, 9] | herbicidal effect (index) on Monochoria vaginalis (Burm. f.) Presl var. plantaginea (Roxb.) Solms-Laub. [2, 9] | herbicidal effect (index) on Echinochloa oryzicola Vasing [3, 9]
1 | Cc1cccc2c1nc(C(=O)C1=C(O)CCCC1=O)c(=O)n2-c1ccccc1 [II-244] | 5 | 5 | 5 | 5 | 5 | 5 | 5 | 5 |  |  |  |  |  | 
2 | CC1(C)CCC(=O)C(C(=O)c2nc3ccccc3n(-c3ccc4c(c3)OCCO4)c2=O)=C1O [II-227] | 5 | 5 | 5 | 5 | 5 | 4 | 5 | 5 |  |  |  |  |  | 
3 | COCCn1c(=O)c(C(=O)C2=C(O)CCCC2=O)nc2cccnc21 [III-88] | 4 | 5 | 5 | 5 | 5 | 5 | 5 | 5 |  |  |  |  |  | 
4 | CCc1ccc(-n2c(=O)c(C(=O)C3=C(O)CCCC3=O)nc3cccnc32)cc1 [IV-24] | 5 | 5 | 5 | 5 | 5 | 4 | 5 | 5 |  |  |  |  |  | 
5 | O=C1CCCC(O)=C1C(=O)c1nc2ccccc2n(-c2ccc([N+](=O)[O-])cc2)c1=O [II-131] | 5 | 5 | 5 | 5 | 5 | 5 | 5 | 5 |  |  |  |  |  | 
6 | Cc1ccc(-n2c(=O)c(C(=O)C3=C(O)CCCC3=O)nc3ccccc32)c(F)c1 [II-212] | 5 | 5 | 5 | 5 | 5 | 5 | 5 | 5 |  |  |  |  |  | 
7 | O=C1CCCC(O)=C1C(=O)c1nc2cccnc2n(Cc2ccccc2F)c1=O [III-108] | 5 | 5 | 5 | 5 | 5 | 5 | 5 | 5 |  |  |  |  |  | 
8 | O=C1CCCC(O)=C1C(=O)c1nc2ccccc2n(-c2cccc([N+](=O)[O-])c2)c1=O [II-130] | 5 | 5 | 5 | 5 | 5 | 5 | 5 | 5 |  |  |  |  |  | 
9 | COCCCn1c(=O)c(C(=O)C2=C(O)CCCC2=O)nc2ccccc21 [Compound I-93] | 5 | 5 | 5 | 4 | 5 |  |  |  | 5 | 5 | 5 |  |  | 
10 | O=C1CCCC(O)=C1C(=O)c1nc2cccnc2n(-c2ccc(F)cc2)c1=O [IV-8] | 5 | 5 | 5 | 5 | 5 | 5 | 5 | 5 |  |  |  |  |  | 
11 | O=C1CCCC(O)=C1C(=O)c1nc2cc(C(F)(F)F)ccc2n(-c2ccccc2)c1=O [II-249] | 5 | 5 | 5 | 5 | 5 | 5 | 5 | 5 |  |  |  |  |  | 
12 | Cc1ccnc(-n2c(=O)c(C(=O)C3=C(O)CCCC3=O)nc3ccccc32)c1 [I-182] | 5 | 5 | 5 | 5 | 5 |  |  |  | 5 | 5 | 5 |  |  | 
13 | O=C1CCCC(O)=C1C(=O)c1nc2cccnc2n(-c2ccc(OC(F)F)cc2)c1=O [IV-95] |  |  |  | 5 | 5 | 5 | 5 | 5 |  |  |  | 5 | 5 | 5
14 | O=C1CCCC(O)=C1C(=O)c1nc2ccccc2n(-c2ccc(C3CC3)cc2)c1=O [II-33] | 5 | 5 | 5 | 4 | 5 | 5 | 5 | 5 |  |  |  |  |  | 
15 | CC(=O)Cn1c(=O)c(C(=O)C2=C(O)CCCC2=O)nc2ccccc21 [Compound I-94] | 5 | 5 | 5 | 5 | 4 |  |  |  | 5 | 5 | 5 |  |  | 
16 | C=CCn1c(=O)c(C(=O)C2=C(O)CCCC2=O)nc2cccnc21 [III-30] | 5 | 5 | 4 | 5 | 5 | 5 | 4 | 5 |  |  |  |  |  | 
17 | COc1ccc(-n2c(=O)c(C(=O)C3=C(O)CCCC3=O)nc3c(F)cc(F)cc32)cn1 [I-283] | 5 | 5 | 4 | 5 | 5 |  |  |  | 5 | 4 | 5 |  |  | 
18 | O=C(C1=C(O)C2CCC(C2)C1=O)c1nc2cccnc2n(-c2ccccc2)c1=O (stereo not drawn) [IV-4] | 5 | 5 | 5 | 5 | 5 | 5 | 5 | 5 |  |  |  |  |  | 
